Reference: patent US6169181A, “Compounds useful to treat retroviral infections” (Pharmacia & Upjohn Company, priority 1998, dated 2001)
Like-named read-outs stand apart in the source and are kept apart here.

Target: HIV-1 protease (Human immunodeficiency virus type 1 group M subtype B, UniProt P04585)
Assay: biochemical
Settings: for inhibition at 0.123 µM / inhibition at 0.37 µM / inhibition at 1.1 µM / inhibition at 3.3 µM / inhibition at 10 µM / inhibition at 30 µM: read-out: Protease % Inhib; for PROTEASE % INHIB.: Table II, enzyme HIV-1
Procedure: The HIV protease screening assay is based on fluorescently labeled substrate which can be resolved from nonlabeled cleavage product using special beads coated with streptavidin. The substrate is biotinylated at the amino terminal arginine and fluorescently labeled with fluorescein isothiocynate (FITC) at the carboxyl terminal lysine. This assay has been employed to detect novel, nonpeptidic inhibitors of HIV-1 protease. Substrate (20 μM of 0.2 μM), sample (10 μl of desired concentraion), and enzyme (10 μl of 0.1 μM) are added to a 96 well pandex plate. The assay is run in 0.1 M sodium acetate buffer at pH 5.5 in the presence of 1.0 M sodium chloride and 0.05% NP-40 with incubated in the dark for one hour at room temperature. Strepavidin coated polystyrene beads {40 μl of 0.1% (w/v)} are added and the plate is incubated in the dark for an additional half hour. The labeled cleavage product is separated from the unreacted substrate via filtration and is read on the Idexx screen machine. The data are analyzed by appropriate computer algorithms to ascertain percent inhibition values.

Structure (SMILES) | inhibition at 0.123 µM (Table I, Dose 0.123 μM) [%] | inhibition at 0.37 µM (Table I, Dose 0.370 μM) [%] | inhibition at 1.1 µM (Table I, Dose 1.100 μM) [%] | inhibition at 3.3 µM (Table I, Dose 3.300 μM) [%] | inhibition at 10 µM (Table I, Dose 10.000 μM) [%] | inhibition at 30 µM (Table I, Dose 30.000 μM) [%] | also measured
CCCCCC1(CCCCC)CC(O)=C(C(CC)c2cccc(NS(=O)(=O)c3cn(C)cn3)c2)C(=O)O1 (stereo not drawn) [Example 63, N-[3-[1-(4-Hydroxy-2-oxo-6,6-dipentyl-5,6-dihydro-2H-pyran-3-yl)-propyl]-phenyl]-1-methyl-1H-imidazole-4-sulfonamide] |  |  |  |  |  |  | inhibition at 0.123 µM: 68.9%; inhibition at 0.37 µM: 79.6%; inhibition at 1.1 µM: 88.6%; inhibition at 3.3 µM: 87.4%; inhibition at 10 µM: 83.6%; inhibition at 30 µM: 78.8%
CN(c1cccc(C(c2c(O)c3c(oc2=O)CCCCCC3)C2CC2)c1)S(=O)(=O)c1ccccc1 (stereo not drawn) [Example 194, N-methyl-N-[3-[cyclopropyl(5,6,7,8,9,10-hexahydro-4-hydroxy-2-oxo-2H-cycloocta[b]pyran-3-yl)methyl]phenyl]-benzenesulfonamide] | < 10 | 20 | 53.9 | 75.2 | 85.5 | 85.2 | 
CCCC1(CCC)CC(O)=C(C(CC)c2cccc(NS(=O)(=O)c3ccc(C#N)cn3)c2)C(=O)O1 (stereo not drawn) [Example 262] | 91.8 | 96.6 | 97.1 | 95.4 | 94.2 | 89.2 | 
N#Cc1ccc(S(=O)(=O)Nc2cccc(C(c3c(O)cc(C(CC4CC4)CC4CC4)oc3=O)C3CC3)c2)cc1 (stereo not drawn) [Example 95, 4-Cyano-N-(3-{cyclopropyl-[6-(2-cyclopropyl-1-cyclopropylmethyl-ethyl)-4-hydroxy-2-oxo-2H-pyran-3-yl]-methyl}-phenyl)-benzenesulfonamide] | 91.2 | 102 | 106 | 113 | 110 | 113 | 
CCCC1(CCc2ccccc2)CC(O)=C(C(c2cccc(NS(=O)(=O)c3ccc(C#N)cn3)c2)C2CC2)C(=O)O1 (stereo not drawn) [Example 311] |  |  |  |  |  |  | PROTEASE % INHIB. (DOSE 0.123 (unit not given)): 86.51%; PROTEASE % INHIB. (DOSE 0.370 (unit not given)): 91.49%; PROTEASE % INHIB. (DOSE 1.100 (unit not given)): 101.8%; PROTEASE % INHIB. (DOSE 3.300 (unit not given)): 96.5%; PROTEASE % INHIB. (DOSE 10.000 (unit not given)): 93.77%; PROTEASE % INHIB. (DOSE 30.000 (unit not given)): 77.63%
CCC(C1=C(O)CC(CC(C)C)(CC(C)C)OC1=O)c1cccc(NS(=O)(=O)c2ccc(C#N)cn2)c1 (racemic) [Example 304, 5-Cyano-N-[3-(1-[5,6-dihydro-6,6-diisobutyl-4-hydroxy-2-oxo-2H-pyran-3-yl]propyl)phenyl]-2-pyridinesulfonamide] |  |  |  |  |  |  | PROTEASE % INHIB. (DOSE 0.123 (unit not given)): 92.01%; PROTEASE % INHIB. (DOSE 0.370 (unit not given)): 93.28%; PROTEASE % INHIB. (DOSE 1.100 (unit not given)): 96.47%; PROTEASE % INHIB. (DOSE 3.300 (unit not given)): 100.47%; PROTEASE % INHIB. (DOSE 10.000 (unit not given)): 107.61%; PROTEASE % INHIB. (DOSE 30.000 (unit not given)): 79.68%
CCC(CCOCCOC)c1cc(O)c(C(c2cccc(NS(=O)(=O)c3cn(C)cn3)c2)C2CC2)c(=O)o1 (stereo not drawn) [Example 105, N-(3-{Cyclopropyl-[6-(1-ethyl-3-{2-methoxy-ethoxy}-propyl)-4-hydroxy-2-oxo-2H-pyran-3-yl]-methyl}-phenyl)-1-methyl-1H-imidazole-4-sulfonamide] | 101 | 115 | 107 | 111 | 111 | 111 | 
CCCC1(CCc2ccccc2)CC(O)=C(C(CC)c2cccc(NS(=O)(=O)c3ccc(C#N)cn3)c2)C(=O)O1 (stereo not drawn) [Example 263, N-[3-{1-(4-Hydroxy-5,6-dihydro-2-oxo-6-phenethyl-6-propyl-2H-pyran-3-yl)propyl}phenyl]-5-cyanopyridine-2-sulfonamide] |  |  |  |  |  |  | inhibition at 0.123 µM: 98.1%; inhibition at 0.37 µM: 99%; inhibition at 1.1 µM: 99.1%; inhibition at 3.3 µM: 98.1%; inhibition at 10 µM: 96.2%; inhibition at 30 µM: 88.2%
